Measurements: patent publication US11071746B2, “Compositions and methods for protecting organs from ischemia/reperfusion injury associated with transplantation” (THE TRUSTEES OF THE UNIVERSITY OF PENNSYLVANIA, priority 2016, dated 2021)

Assays:
[1] = LC/MS/MS drug levels in lung tissue, BALF and perfusate during ex vivo lung perfusion (EVLP); parameters: species or system human
Description: (§1) Donor lungs were offered to our lung-transplantation program through our local organ procurement organization (Gift of Life) and were de-identified. Donor lungs that met the entry criteria (i.e., non-transplantable) were retrieved, delivered to our center by means of standard cold-storage transport in a low-potassium dextran solution (Perfadex, Vitrolife), and perfused in the EVLP system for 3-6 hours. Lungs were considered suitable for transplantation if during EVLP the PO2:FIO2 ratio—that is, the partial pressure of oxygen ex vivo (PO2) to the fraction of inspired oxygen (FIO2)—was 350 mm Hg or more and if deterioration from baseline levels of all three physiological measurements (pulmonary vascular resistance, dynamic compliance, and peak inspiratory pressure) was less than 15% while the lungs were ventilated with the use of a tidal volume of 7 ml per kilogram of donor body weight and a rate of 7 breaths per minute during the perfusion period (FIG. 1)
(§2) Technique: The acellular EVLP technique has been described in detail elsewhere (Cypel et al., N Engl J Med. 2011 Apr. 14; 364(15):1431-40). After 3-6 hours of EVLP, the lungs were cooled to 4° C. over a period of 10 minutes. Thereafter, perfusion and ventilation were stopped (with FIO2 changed to 0.21 for the purpose of lung storage), and the trachea was clamped at full inspiration to maintain the lungs in a state of inflation. The lungs were then stored at 4° C. in Perfadex until transplantation.
LGM2605 (SDG) ACCUMULATES IN HUMAN LUNG TISSUES: Using LC/MS/MS analytical methodologies, we determined synthetic SDG (LGM2605) levels in left and right lung tissues, in bronchoalveolar lavage fluid (BALF) and perfusate fluid over multiple time points spanning from 30 minutes post aerosolized instillation of 200 mg drug/lung, to 360 minutes (FIG. 2). Of importance is that aerosolized SDG (LGM2605) (i.e, instilled in airways), leaks into the systemic circulation and can be detected in the perfusate for at least 240 minutes. Importantly, levels in lung tissue biopsies show a peak of drug by 120 minutes, persisting for up to 240 minutes. Additionally, levels in BALF persist beyond 360 min.

[2] = tested on: human donor lungs; assay: Ex vivo functional assessment (oxygenation, compliance) of EVLP human donor lungs; details: aerosolized drug, EVLP #3 human lung
Description: as §1, §2
Ex Vivo Functional Assessment: For the functional assessment ex vivo, tidal volume was set at 10 ml per kilogram of donor body weight and 10 breaths per minute, with FIO2 at 1.0. Lung function was evaluated hourly during EVLP according to the following calculations: PO2=[left atrial PO2−pulmonary-artery PO2 (in mm Hg)], and pulmonary vascular resistance=[(pulmonary-artery pressure-left atrial pressure)×80]÷pulmonary-artery flow (in dynes·seconds·cm^−5), dynamic compliance (in milliliters per centimeter of water), and peak inspiratory pressure (in centimeters of water). […]

[3] = tested on: hemeoxygenase-1 (HO-1); assay: qRT-PCR gene expression in EVLP lung tissues: HO-1; parameters: species or system human; details: EVLP #4, 200 mg/lung instilled in right lung, vehicle in contralateral lung
Description: (§3) GENE EXPRESSION LEVEL OF THE NRF2-REGULATED STRESS RESPONSE ENZYME HO-1: In a separate study (EVLP #4), SDG (LGM2605) was instilled only in one lung (right) while vehicle control was instilled in the contralateral lung (FIG. 4). The concentration of the drug (200 mg/lung) was kept the same as above. […] A drop in the left lung may reflect action of SDG (LGM2605) on that lung through the perfusate (we have shown above that some of the drug appears into the systemic circulation).

[4] = tested on: NQO-1; assay: qRT-PCR gene expression in EVLP lung tissues: NQO1; parameters: species or system human; details: EVLP #4, treated lung vs vehicle-treated lung, 120' sampling time
Description: as §3
(§4) GENE EXPRESSION LEVELS OF THE NRF2-REGULATED ANTIOXIDANT ENZYMES NQO1 AND GSTM1 INCREASE IN HUMAN LUNG (EVLP) TISSUES TREATED WITH LGM2605 (SDG): Nrf2 is a transcription factor that regulates the expression of antioxidant and cytoprotective genes such as NQO-1 and GSTMu1. […] Our findings confirm that SDG boosts endogenous antioxidant defenses in human lung tissues during ischemia (FIG. 6).

[5] = tested on: GSTMu1; assay: qRT-PCR gene expression in EVLP lung tissues: GSTM1; parameters: species or system human; details: EVLP #4, treated lung vs vehicle-treated lung, 120' sampling time
Description: as §3, §4

[6] = tested on: IL-1β; assay: qRT-PCR gene expression in EVLP lung tissues: IL-1β; parameters: species or system human; details: EVLP #4, treated right lung vs vehicle-treated lung
Description: as §3
(§5) Our findings confirm that SDG decreases inflammatory parameters in human lung tissues during ischemia.

[7] = tested on: IL-6; assay: qRT-PCR gene expression in EVLP lung tissues: IL-6; parameters: species or system human; details: EVLP #4, treated right lung vs vehicle-treated lung
Description: as §3, §5

[8] = tested on: COX-2; assay: qRT-PCR gene expression in EVLP lung tissues: COX-2; details: aerosolized instillation, human EVLP lung tissues
Description: as §3
GENE EXPRESSION LEVELS OF THE COX-2 (AN ENZYME PROMOTING INFLAMMATION AND PAIN) DECREASE IN HUMAN LUNG (EVLP) TISSUES TREATED WITH LGM2605 (SDG): Cyclo-oxygenease-2 is an enzyme responsible for the formation of prostanoids such as thromboxane and prostanglandins. Pharmacological inhibition of COX can provide relief from symptoms of inflammation and pain. […] A drop in the vehicle-treated lung may reflect action of the drug via the perfusate (systemic circulation—FIG. 8).

[9] = aerosolized instillation of 200 mg drug/lung, human EVLP lungs, lung tissue biopsies

## COc1cc(C[C@@H](CO[C@@H]2O[C@H](CO)[C@@H](O)[C@H](O)[C@H]2O)[C@H](CO[C@@H]2O[C@H](CO)[C@@H](O)[C@H](O)[C@H]2O)Cc2ccc(O)c(OC)c2)ccc1O [LGM2605, secoisolariciresinol diglucoside]
[1]; aerosolized instillation of 200 mg drug/lung, human EVLP lungs, BALF
  persistence of drug levels in BALF: > 360 min
[1]; [9]
  persistence of drug levels in lung tissue biopsies: up to 240 minutes
  time of peak of drug in lung tissue biopsies: ≤ 120 min
[1]; aerosolized instillation of 200 mg drug/lung, human EVLP lungs, perfusate
  time drug can be detected in the perfusate: at least 240 minutes
[1]; regardless of route of delivery (inhaled or intravenous)
  accumulation in lung: accumulates in lung
[2]
  dynamic compliance: improving
  static compliance: improving
[2]; improved from 200 before drug
  P/F ratio (oxygenation) after treatment: > 350
[3]
  HO-1 gene expression change: drop
[4]
  NQO-1 gene expression change: robust increase
[5]
  GSTMu1 gene expression change: robust increase
[6]
  IL-1β gene expression change: significantly reduced
[7]
  IL-6 gene expression change: significantly reduced
[8]
  COX-2 gene expression change: blocks entirely
  time to entire block of COX-2 expression after instillation: ≤ 50 min
